Square brackets hold non-standard residues; d marks the D form. Ends that are not written are not given here. * marks the point of attachment. Dap = NC[C@H](N)C(=O)O; For = O=C*

For this assay, the system named is PatD. The assay is described as follows: PatD enzyme reaction: introduction of azoline rings into substrate peptides, mass change read by MALDI-TOF-MS. The following applies: for Dehydrated molecules: modification with PatD of synthesized substrates (Table 11-2). The class given is biochemical, Prochloron didemni. Here is the method: After the DNA prepared in 3-2 was transcribed and translated in a cell-free protein expression system of 2.5 μl scale in accordance with the method of Kawakami, et al. (Kawakami et al., Chemistry & Biology 15, 32-42 (2008)) and the solution conditions were adjusted by adding 40 mM Tris-HCl (pH 8.0), 8 mM DTT, 4 mM MgCl2, and 0.8 mM ATP (each, final concentration), recombinant PatD was added.
The reaction was conducted under two conditions as described below.
The mass of the peptide was measured using MALDI-TOF-MS by using sinapinic acid as a matrix and whether a mass change occurred or not by the addition of PatD was checked. The number of azoline rings introduced can be found from the mass change.

Substance “Ac—LAELSEEALGDA-GGGGG-VXAXIXFX (X=Dap)-A: synthetic peptide significantly different from a natural substrate (FIG. 17) (Ac-LAELSEEALGDAGGGGGV[Dap]A[Dap]I[Dap]F[Dap]A)” returned a Dehydrated molecules of 4.
For “C1wt: PatE precursor peptide, leader-GLEAS-cassette-AYDGVEPS; cassette VTACITFC, same as wild type PatE (GLEASVTACITFCAYDGVEPS; An example of Recognition Sequence 1 based on Prochloron didemni.; Amino acid sequence of cassette region of wild type PatE; An example of Recognition Sequence 2 based on Prochloron didemni.)”, the “number of azoline rings introduced by PatD” value (modification with PatD, change in molecular weight by MALDI-TOF-MS) is “four”.
With “PatEC1wt-GS: precursor peptide; cassette VTACITFC, recognition sequence 2 AYDGVGSGSGS (GLEASVTACITFCAYDGVGSGSGS; An example of Recognition Sequence 1 based on Prochloron didemni.; Amino acid sequence of cassette region of wild type PatE; An example of Recognition Sequence 2 based on Prochloron didemni.)”, where the note is “treated with PatD and Glu-C, leader sequence cleaved”, the “number of heterocycles in C-terminal short peptide” value is reported as “four”.
The substance “fMLAELSEEALGDA-GGGGG-VXAX (X=Dap)-A: PatD substrate with shortened leader, GGGGG and Dap in the cassette (For-MLAELSEEALGDAGGGGGV[Dap]A[Dap]A)” had a Dehydrated molecules of 1.
On the same count and under the same terms, next, “fMLAELSEEALGDA-GGGGG-VXAX (X=PhSer)-A: PatD substrate with shortened leader, GGGGG and PhSer in the cassette (For-MLAELSEEALGDAGGGGGV[PhSer]A[PhSer]A)”: 1.
Same read-out and setting: the same measure for “fMNKKNILPQQGQPVIRLTAGQLSSQLAELSEEALGDA-GLEAS-LCGCTSYCYTVS-AYDGV: PatD substrate: leader, recognition sequence 1, cassette, recognition sequence 2 (For-MNKKNILPQQGQPVIRLTAGQLSSQLAELSEEALGDAGLEASLCGCTSYCYTVSAYDGV; cysteine pairing not given here)”: 2; for “fMNKKNILPQQGQPVIRLTAGQLSSQLAELSEEALGDA-GLEAS-VXAX (X=Dap)-AYDGVEPS: PatD substrate with Dap in the cassette (For-MNKKNILPQQGQPVIRLTAGQLSSQLAELSEEALGDAGLEASV[Dap]A[Dap]AYDGVEPS)”: 2.

The values above are taken from patent publication US10197567B2, “Azoline compound and azole compound library and method for producing same” (The University of Tokyo, priority 2011, dated 2019).
